According to patent US20230123334A1, “AMINO LIPID COMPOUND, PREPARATION METHOD THEREFOR, AND APPLICATION THEREOF” (SHENZHEN SHENXIN BIOTECHNOLOGY CO., LTD., priority 2020, published 2023):

System: HEK293 cells
Test: Preliminary screening as mRNA vectors, EGFP mRNA transfection of HEK293 cells
Assay type: cell-based
Details: EGFP mRNA 50 ng per well, 96-well plates; percentage of GFP fluorescent cells relative to total number of cells (Hoechst)
Procedure, shortened: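 HEK293 cells in DMEM plus 10% FBS transfected in 96-well format with 50 ng EGFP mRNA per well; Lipofectamine2000 served as positive control. Read-out is the percentage of GFP-fluorescent cells among total cells, counted by Hoechst nuclear stain.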

| Structure (SMILES) | Absolute mRNA transfection efficiency in HEK293 cells |
| --- | --- |
| CCCCCCCCSc1nc(NCCCCCC)nc(NCC2CCN(C)CC2)n1 [Compound D10S8N6] | 0.4% |
| CCCCCCCCCCCCCCCCNc1nc(NCCN(CC)CC)nc(SCCCCCCCCCCCCCCCC)n1 [Compound D7S16N16] | 1.6% |
| CCCCCCCCSc1nc(NCCCCCC)nc(NCCN(C)C)n1 [Compound D1S8N6] | 2.4% |
| CCCCCCCCCNc1nc(NCCCN2CCOCC2)nc(SCCCCCCC)n1 [Compound D8S7N9] | 10.6% |
| CCCCCCCCCCCCCCCCCCSc1nc(NCCCCCCCCC)nc(NCCN2CCCCC2)n1 [Compound D4S18N9] | 0.2% |
| CCCCCCCCCCCCCCCCCCNc1nc(NCCN2CCOCC2)nc(SCCCCCCC)n1 [Compound D2S7N18] | 5.2% |
| CCCCCCCCNc1nc(NCCN(CC)CC)nc(SCCCCCCCC)n1 [Compound D7S8N8] | 2.5% |
| CCCCCCCCCNc1nc(NCCN2CCCC2)nc(SCCCCCCC)n1 [Compound D3S7N9] | 2.8% |
| CCCCCCCCCCCCCCCCCCSc1nc(NCCCCCC)nc(NCCN2CCOCC2)n1 [Compound D2S18N6] | 0.4% |
| CCCCCCCCCCCCCCCCCCSc1nc(NCCCCCCCCC)nc(NCC2CCN(C)CC2)n1 [Compound D10S18N9] | 8.9% |
| CCCCCCCCCCCCCCCCCCNc1nc(NCCN(C)C)nc(SCCCCCC)n1 [Compound D1S6N18] | 32.7% |
| CCCCCCCCNc1nc(NCCCN2CCN(C)CC2)nc(SCCCCCCCC)n1 [Compound D9S8N8] | 4.5% |
| CCCCCCCCCCCCCCCCCCSc1nc(NCCN2CCN(C)CC2)nc(SCCCCCC)n1 [Compound D5S6S18] | 55.1% |
| CCCCCCCCSc1nc(NCCCCCCC)nc(NCCN2CCCC2)n1 [Compound D3S8N7] | 0.7% |
| CCCCCCCCCCCCCCCCSc1nc(NCCCCCCCCCCCCCCC)nc(NCCN2CCCCC2)n1 [Compound D4S16N15] | 0.1% |
| CCCCCCCSc1nc(NCCCCCC)nc(NCCN2CCOCC2)n1 [Compound D2S7N6] | 1.2% |
| CCCCCCCCCCCCCCCNc1nc(NCCN2CCN(C)CC2)nc(SCCCCCCC)n1 [Compound D5S7N15] | 38.5% |
| CCCCCCCCCCCCNc1nc(NCCN(CC)CC)nc(SCCCCCC)n1 [Compound D7S6N12] | 1.4% |
| CCCCCCCCNc1nc(NCCCN2CCN(C)CC2)nc(SCCCCCC)n1 [Compound D9S6N8] | 2.5% |
| CCCCCCCCCSc1nc(NCCN2CCN(C)CC2)nc(SCCCCCCC)n1 [Compound D5S7S9] | 20.6% |
| CCCCCCCCCCCCCCCCSc1nc(NCCCCCCC)nc(NCCN2CCCC2)n1 [Compound D3S16N7] | 85.0% |
| CCCCCCCCCSc1nc(NCCCCCC)nc(NCCCN2CCN(C)CC2)n1 [Compound D9S9N6] | 1.8% |
| CCCCCCCCCCCCCCCCNc1nc(NCCN(C)C)nc(SCCCCCC)n1 [Compound D1S6N16] | 3.3% |
| CCCCCCCCCSc1nc(NCCCCCCC)nc(NCC2CCN(C)CC2)n1 [Compound D10S9N7] | 0.9% |
| CCCCCCNc1nc(NCCCN2CCOCC2)nc(SCCCCCC)n1 [Compound D8S6N6] | 0.0% |
| CCCCCCCCCCCCNc1nc(NCCN2CCCC2)nc(SCCCCCCCCCCCC)n1 [Compound D3S12N12] | 10.8% |
| CCCCCCCCCCCCCNc1nc(NCCN(CC)CC)nc(SCCCCCCC)n1 [Compound D7S7N13] | 1.2% |
| CCCCCCCCCCCCN(CCCCCCCCCCCC)c1nc(NCCN(C)C)nc(SCCCCCCCCCCC)n1 [D1S11^2N12] | 0.0% |
